From ChEMBL document CHEMBL1142218, “Synthesis, anti-HIV activity, and resistance profiles of ribose modified nucleoside phosphonates” (Bioorg Med Chem Lett, 2007)

Key:
[1] = Cytotoxicity against human MT2 cells; assay type: cell-based
[2] = tested on: Human immunodeficiency virus; experiment: Antiviral activity against wild type HIV; assay type: functional, organism-based; conditions: Human immunodeficiency virus 1
[3] = Inhibition of wild type HIV reverse transcriptase; set-up: species or system Human immunodeficiency virus
[4] = tested on: Human immunodeficiency virus; experiment: Antiviral activity against HIV with reverse transcriptase M184V mutation in MT-2 cells assessed as fold resistance relative to wild type
[5] = tested on: Human immunodeficiency virus; experiment: Antiviral activity against HIV with reverse transcriptase 6TAMs mutation in MT-2 cells assessed as fold resistance relative to wild type
[6] = tested on: Human immunodeficiency virus; experiment: Antiviral activity against HIV with reverse transcriptase K65R mutation in MT-2 cells assessed as fold resistance relative to wild type

Compound | CC50 [1] [µM] | EC50 [2] [µM] | IC50 [3] [µM] | Activity [4] | Activity [5] | Activity [6]
Cc1cn([C@H]2C=C[C@@H](OCP(=O)(O)O)O2)c(=O)[nH]c1=O | > 1000 | 26 | 0.39 | 1.1 | 12.7 | 5.2
Cc1cn([C@H]2CC[C@@H](OCP(=O)(O)O)O2)c(=O)[nH]c1=O |  | > 200 | 5.4 |  |  | 
O=c1ccn([C@H]2C=C[C@@H](OCP(=O)(O)OP(=O)(O)OP(=O)(O)O)O2)c(=O)[nH]1 |  |  | 0.55 |  |  | 
Nc1ncnc2c1ncn2[C@H]1C=C[C@@H](OCP(=O)(O)OP(=O)(O)OP(=O)(O)O)O1 |  |  | 0.14 |  |  | 
O=c1[nH]c(=O)n([C@H]2C=C[C@@H](OCP(=O)(O)O)O2)cc1F |  | > 200 |  |  |  | 
O=c1[nH]c(=O)n([C@H]2C=C[C@@H](OCP(=O)(O)O)O2)cc1Cl | 413 | 28.5 |  | 0.8 | >10 | 6.7
Nc1ccn([C@H]2C=C[C@@H](OCP(=O)(O)O)O2)c(=O)n1 |  | > 200 |  |  |  | 
Nc1ncnc2c1ncn2[C@H]1CO[C@@H](OCP(=O)(O)O)C1 | 863 | 9.5 | 0.32 | 11 | 3.2 | 2.2
O=c1ccn([C@H]2CC[C@@H](OCP(=O)(O)O)O2)c(=O)[nH]1 |  | > 200 |  |  |  | 
Nc1ncnc2c1ncn2[C@H]1CC[C@@H](OCP(=O)(O)O)O1 | > 1000 | 12 | 4.1 | 1.1 | 3.4 | 4.9
O=c1[nH]c(=O)n([C@H]2C=C[C@@H](OCP(=O)(O)O)O2)cc1Br | 935 | 15 |  | 1.3 | >10 | 7.5
Cc1cn([C@H]2C=C[C@@H](OCP(=O)(O)OP(=O)(O)OP(=O)(O)O)O2)c(=O)[nH]c1=O |  |  | 0.06 |  |  | 
Nc1ncnc2c1ncn2[C@H]1CC[C@@H](OCP(=O)(O)OP(=O)(O)OP(=O)(O)O)O1 |  |  | 0.26 |  |  | 
Nc1ncnc2c1ncn2[C@H]1C=C[C@@H](OCP(=O)(O)O)O1 | > 1000 | 2.1 | 0.6 | 0.9 | 2.9 | 2.9
Nc1ncnc2c1ncn2[C@H]1C=C[C@@H](OCP(=O)(O)O)C1 |  | 51.7 |  |  |  | 
O=c1ccn([C@H]2C=C[C@@H](OCP(=O)(O)O)O2)c(=O)[nH]1 | > 1000 | > 200 | 5.7 |  |  | 
Nc1nc(NC2CC2)c2ncn([C@H]3C=C[C@@H](CO)C3)c2n1 (single isomer, unassigned) [ABACAVIR] | 190 | 0.32 | 0.13 | 7.1 | 5.7 | 3.8
C[C@H](Cn1cnc2c(N)ncnc21)OCP(=O)(O)O [TENOFOVIR ANHYDROUS] | > 1000 | 3.6 | 0.38 | 0.7 | 8.8 | 4.3
